Key:
[1] = tested on: PDE4A-expressing Daoy cells; test: Viable cell number, PDE4A-expressing Daoy cells; assay type: cell-based, human; conditions: CXCL12 1 μg/ml, AMD 3465 2.5 μg/ml, Rolipram 200 μM
Method: (§1) PDE4A expression. U87 and Daoy cells (15,000 cells) were transiently transfected for 48 h with a plasmid encoding a transgene for the tet-off transactivator (tTA) alone (kind gift from Dr. Louis Muglia, Washington University School of Medicine, St. Louis, Mo.), a plasmid containing a transgene for tet-off regulated expression of phosphodiesterase 4A (PDE4A) alone (kind gift from Dr. James Cherry, Boston University, Boston, Mass.), or a combination of both plasmids, using lipofectamine (Invitrogen) according to the manufacturer's instructions. Plasmid DNA (2 μg) was mixed with lipofectamine (5 μl) per 35 mm^2 dish. Transfection proceeded for 9 hours prior to exchanging transfection media for αMEM supplemented with 10% FCS.

astrocytes = test: Cell number by trypan blue exclusion, primary astrocytes; assay type: cell-based, mouse; conditions: CXCL12 1 μg/ml, 24 hours
Method: Primary astrocyte cultures. Primary astrocytes were cultured from 1 to 3-day-old BALB/C mice as described (57). The cortices were triturated into single cells in minimal essential medium (Invitrogen) containing 10% FCS, and then plated onto 75 cm^2 T-flasks (0.5 hemisphere/flask) for 10-14 days. Astrocytes were prepared by vigorous shaking of T-flasks overnight, removal of non-adherent cells, and isolation of the remaining adherent cells, with 0.1% trypsin.
(§2) Growth factor and drug treatment. Following serum-starvation for 24 hours, astrocytes, granule cells, U87 cells and Daoy cells, were treated with 1 μg/ml CXCL12 (PeproTech), […] AMD3465 (kind gift from Simon Fricker, AnorMED, Langley, BC, Canada) (200 μM Rolipram (Sigma), or 10 μM Forskolin (Sigma) as indicated.

[2] = tested on: PDE4A-expressing U87 cells; test: Viable cell number, PDE4A-expressing U87 cells; assay type: cell-based, human; conditions: CXCL12 1 μg/ml, AMD 3465 2.5 μg/ml, Rolipram 200 μM
Method: as §1

[3] = tested on: Daoy medulloblastoma cells; test: Viable cell number by trypan blue exclusion, Daoy cells; assay type: cell-based, human; conditions: CXCL12 1 μg/ml
Method: Brain tumor cell cultures. Cells were cultured in αMEM (Invitrogen, Carlsbad, Calif.) supplemented with 10% FCS (Biomedia, Foster City, Calif.) in the presence of penicillin streptomycin at 37° C. with 5% CO2.
as §2

CXCR4 = CXCR4 (Homo sapiens, UniProt P61073); test: Stimulated CXCR4 phosphorylation in LN428 GBM cells (western blot); assay type: cell-based; set-up: lysates from the glioblastoma cell line LN428, which is known to express high levels of CXCR4; endogenous in cells; host or cells: LN428 GBM cell line
CXCR4, sequence (P61073 whole entry): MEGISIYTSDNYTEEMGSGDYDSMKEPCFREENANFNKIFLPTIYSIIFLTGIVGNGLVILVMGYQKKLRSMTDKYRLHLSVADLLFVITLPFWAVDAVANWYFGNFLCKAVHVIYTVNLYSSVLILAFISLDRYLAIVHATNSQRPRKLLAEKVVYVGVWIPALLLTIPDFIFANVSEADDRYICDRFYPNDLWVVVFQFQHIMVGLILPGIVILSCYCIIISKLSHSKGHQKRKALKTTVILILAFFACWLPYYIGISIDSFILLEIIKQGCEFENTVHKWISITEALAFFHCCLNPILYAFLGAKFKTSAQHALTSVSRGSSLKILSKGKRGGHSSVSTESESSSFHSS
Method: Cell Culture, transfections and stimulation of CXCR4 phosphorylation. The U87 glioblastoma multiforme (GBM, grade IV) cell line was obtained from the American Type Culture Collection. The LN428 GBM cell line was a kind gift of Dr Erwin van Meir (Winship Cancer Center, Emory University, Atlanta, Ga.). U87 cells were grown in minimum essential a media supplemented with 10% fetal bovine serum ((FBS), Biomedia, Foster City, Calif.). LN428 cells were grown in DMEM (Fisher, Pittsburgh, Pa.) supplemented with 10% horse serum (Sigma). All cells were grown in the presence of penicillin-streptomycin. The coding sequence for human CXCR4 was obtained by high fidelity RT-PCR (Superscript III Platinum, Invitrogen), and cloned into the expression vector pMSCVneo (Clontech, Palo Alto, Calif.). Transfections were performed with 0.3 μg of plasmid DNA in 20 μl Lipofectamine (Invitrogen)/35 mm^2 tissue culture dish for 9 hours according to the manufacturer's instructions. Cells recovered in Optimem supplemented with 10% FBS. Transfected and non-transfected cells were placed in serum free media for 24 hours prior to treatment with agents to stimulate CXCR4 phosphorylation. Treatment was usually for 0 or 10 minutes with 1 μg/ml CXCL12 (Peprotech, Rocky Hill N.J.), 4 μM 4-Phorbol 12-myristate 13-acetate (PMA) or 10 nM EGF. In some experiments, CXCL12 was washed away and cells were incubated for an additional 20 minutes in serum free media alone.
Western Blot Analysis. Whole-cell extracts were obtained by lysing cells with lysis buffer (20 mM Tris pH 7.4, 137 mM NaCl, 10% Glycerol and 1% Triton X-100) supplemented with phosphatase inhibitor cocktail set II (Calbiochem, La Jolla, Calif.) and protease inhibitors PMSF (1 mM), leupeptin (0.005 mg/ml) and aprotonin (0.005 mg/ml). The proteins (50-75 μg) were resolved with 10% Bis-Tris gels (Invitrogen) and transferred onto the nitrocellulose membrane Hybond ECL (Amersham, Piscataway, N.J.) according to standard protocols. Polyclonal anti-CXCR4 antibody was used at a 1:500 dilution and P338-CXCR4 and P339-CXCR4 directed antibodies were used at 1:100 dilutions overnight at 4° C. This was followed by incubation with horseradish peroxidase-conjugated secondary antibody (1:15,000; Bio-Rad). Peroxide activity was detected using the enhanced chemiluminescence Supersignal West Dura system (Pierce, Rockford, Ill.). Mouse anti-actin antibody at a concentration of 1:1500 was used as a loading control. Peptide competitions and lambda phosphatase treatment were performed as described above.
The utility of these antibodies for evaluating the relationship between ligand binding and CXCR4 function is dependent upon their ability to distinguish a ligand activated form of the receptor. Serum starvation increased CXCL12 responsiveness (data not shown), and for all of these experiments LN428 GBM cells were serum starved for 24 hours prior to CXCL12 treatment. Serum starved LN428 cells were treated with 1 μg/ml CXCL12 for 0 or 10 minutes and the abundance of phospho-CXCR4 was determined by western blot and immuno-localization in fixed cells. […] A similar CXCL12-induced increase in P339-CXCR4 (FIG. 3B), but not P338-CXCR4 (data not shown) immunoreactivity was seen by immunofluorescent analysis of paraformaldehyde fixed cells. After 10 minutes of exposure to CXCL12, P339-CXCR4 can be seen localized to the surface of LN428 cells (FIG. 3B). CXCL12 was then washed away and cells were incubated in its absence for an additional 20 minutes. Surface labeling declined as a function of time and P339-CXCR4 was seen accumulating intracellularly.
Whether this is the only kinase that can phosphorylate these residues is unclear. The observation that protein kinase C (PKC) stimulated CXCR4 internalization also depends upon phosphorylation of this region of the molecule raises the question of whether these sites might also be PKC phosphorylation sites (17, 19, 27, 28). […]

[4] = 1 μg/ml CXCL12, 4 μM PMA or 10 nM EGF

## CXCL12: chemokine ligand of CXCR4 (Peprotech)
[1]
  effect on cell number: no longer any benefit
astrocytes
  effect on cell number: tended to decrease
[2]
  effect on cell number: no longer any benefit
[3]
  increase in cell number: greater than 2 fold
[3]; serum-free
  increase in cell number: greater than 200%
CXCR4; [4]
  P338 phosphorylation stimulated: not
  P339 phosphorylation: stimulated
CXCR4; 1 μg/ml CXCL12, 10 minutes, serum starved LN428 cells
  P338-CXCR4 levels after treatment: unaffected
